Measured values: US20040101916A1, “Treatment of liver diseases” (priority 2002, published 2004)

Key:
[1] = system: GADD45β; assay: Northern blot of GADD45β expression after SAMe treatment in CL-48 normal liver cells; type: cell-based; conditions: CL-48 cells, 0, 1.0 mM, 2.0 mM SAMe, 72 hours
Experimental: (§1) CL-48 and HepG2 cells were treated with 0, 1.0 mM, and 2.0 mM SAMe. After 72 hours of treatment, Northern blot was performed to analyze the expression of GADD45β, using 18S RNA as an internal loading control.

[2] = system: GADD45β; assay: Northern blot of GADD45β expression after SAMe treatment in HepG2 cells; type: cell-based, human
Experimental: as §1
(§2) Expression of GADD45β after SAMe treatment under different p53 backgrounds was examined by Northern blot.

[3] = system: CCAAT/NF-Y boxes of the GADD45β promoter region; assay: Gel retardation / super-shift assay, nuclear proteins of CL-48 cells on CCAAT/NF-Y boxes of the GADD45β promoter; type: cell-based; conditions: CL-48 nuclear proteins
Experimental: End-labeled oligonucleotides corresponding to the CCAAT/NF-Y boxes of the GADD45β promoter region were incubated with the extracted nuclear proteins, and the binding complexes were then separated on a 6% retardation gel. Protein binding sites on the GADD45β promoter Pα region were identified using unlabeled oligonucleotide competitors and NF-Y antibodies.

[4] = system: GADD45β; assay: Northern blot of GADD45β expression after SAMe treatment in Hep3B (p53 null); type: cell-based, human
From the text: as §2

[5] = system: NF-κB box of the GADD45β promoter region; assay: Gel retardation assay, nuclear proteins of CL-48 cells on NF-κB box of the GADD45β promoter; type: cell-based; conditions: CL-48 nuclear proteins, 48 hours after 2.0 mM SAMe or 200 mM alcohol, compared to non-treated control cells
Experimental: Nuclear proteins were extracted as mentioned above. End-labeled oligonucleotides corresponding to the NF-κB box of the GADD45β promoter region were incubated with the extracted nuclear proteins, and the binding complexes were then separated on a 6% retardation gel.

[6] = system: GADD45α; conditions: HepG2 clone, Northern blot
Experimental: (§3) Expression of GADD45α and GADD45β after alcohol treatment was determined by Northern blot in HepG2 clone.

[7] = system: GADD45β; conditions: HepG2 clone, Northern blot
Experimental: as §3

Question: Which results are given for C[S+](CC[C@H](N)C(=O)O)C[C@H]1O[C@@H](n2cnc3c(N)ncnc32)[C@H](O)[C@@H]1O (stereo partly shown) [SAMe, S-Adenosylmethionine]?
Answer: induction of GADD45β expression [1]: induced by a low dose of SAMe in CL-48 cells, and the induction reaches plateau at a higher dose of SAMe; expression of GADD45β after SAMe treatment ([2]; HepG2 (p53 wild type), different dose ranges): up-regulated; induction of GADD45β expression ([2]; HepG2 cells, 0, 1.0 mM, 2.0 mM SAMe, 72 hours): the induction remains dose-dependent; amount of major protein-binding band on CCAAT/NF-Y oligonucleotides ([3]; 48 hours after 2.0 mM SAMe, compared to non-treated controls): amount of a major band decreased; super-shift of binding complex with NF-Y antibodies ([3]; SAMe-treated samples): the binding complex is shifted; expression of GADD45β after SAMe treatment [4]: failed to be induced; amount of binding complexes on NF-κB box oligonucleotides [5]: decreased amount of one binding complex and an increased amount of another binding complex

Question: For CCO [alcohol], which “expression of GADD45α after alcohol treatment” value [6] is on record?
Answer: Its value is “increases in a dose-dependent manner”.

Question: And the “expression of GADD45β after alcohol treatment” value [7]?
Answer: The value was “does not change”.

Question: What about the “amount of binding complexes on NF-κB box oligonucleotides” value [5] of the same compound?
Answer: Its value is “decreased amount of one binding complex and an increased amount of another binding complex”.
